Laboratory results: patent US11208386B2, “Inhibitors of protein arginine deiminases (PADs) and methods of preparation and use thereof” (University of Massachusetts, priority 2016, dated 2021)

How the values were obtained:
Assay type in all cases: biochemical
PAD2 = target: T1, PAD2 (Homo sapiens, UniProt Q9Y2J8); assay: Inactivation kinetics, PAD2; settings: for kinact/KI: a: single kobs determined, b: from a linear fit, other footnotes: from kinact and KI; for Fold PAD2 Selectivity: kinact/KI relative to least inhibited isozyme (1.0)
T1 construct: made in house
T1 sequence (Q9Y2J8 whole entry): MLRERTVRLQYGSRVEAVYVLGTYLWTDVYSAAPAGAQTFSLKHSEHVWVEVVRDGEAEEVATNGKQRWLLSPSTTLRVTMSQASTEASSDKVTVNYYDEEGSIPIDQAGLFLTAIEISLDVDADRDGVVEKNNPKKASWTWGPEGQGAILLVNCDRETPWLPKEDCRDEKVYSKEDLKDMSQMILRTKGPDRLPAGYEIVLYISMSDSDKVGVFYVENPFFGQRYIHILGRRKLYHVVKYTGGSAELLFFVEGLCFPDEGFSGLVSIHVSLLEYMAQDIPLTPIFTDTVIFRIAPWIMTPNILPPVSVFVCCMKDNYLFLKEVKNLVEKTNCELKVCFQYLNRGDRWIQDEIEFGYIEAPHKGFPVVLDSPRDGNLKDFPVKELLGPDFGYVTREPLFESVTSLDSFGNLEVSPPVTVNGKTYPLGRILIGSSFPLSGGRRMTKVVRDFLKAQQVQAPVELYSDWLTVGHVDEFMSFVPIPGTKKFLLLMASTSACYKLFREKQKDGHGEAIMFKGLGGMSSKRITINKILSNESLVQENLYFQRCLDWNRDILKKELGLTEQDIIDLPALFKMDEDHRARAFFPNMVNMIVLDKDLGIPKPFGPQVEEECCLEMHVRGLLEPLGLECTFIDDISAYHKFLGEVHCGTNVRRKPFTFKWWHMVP
Description: (§1) Inactivation kinetic parameters were determined by incubating PAD1, 2, or 4 (2.0 μM) or PAD3 (5.0 μM) in a pre-warmed (10 min; 37° C.) inactivation mixture (50 mM HEPES, 10 mM CaCl2, and 2 mM DTT, pH 7.6, with a final volume of 60 μL) containing various concentrations of inhibitor. Aliquots were removed at various time points and added to a pre-warmed (10 min, 37° C.) reaction mixture (50 mM HEPES, 50 mM NaCl, 10 mM CaC2, 2 mM DTT, and 10 mM BAEE or 10 mM BAA in the case of PAD3; pH 7.6). After 15 min, reactions were quenched in liquid nitrogen and citrulline production quantified using the COLDER assay. […] In Vitro Labeling of PADs with “Clickable” Probes BB-F-Yne (5u), BB-Cl-Yne (5v) and BIFYne (5w)

PAD1 = target: T2, PAD1 (Homo sapiens, UniProt Q9ULC6); assay: Inactivation kinetics, PAD1; settings: for kinact/KI: a: single kobs determined, b: from a linear fit; for Fold PAD1 Selectivity: kinact/KI relative to least inhibited isozyme (1.0)
T2 construct: made in house
T2 sequence (Q9ULC6 1-663): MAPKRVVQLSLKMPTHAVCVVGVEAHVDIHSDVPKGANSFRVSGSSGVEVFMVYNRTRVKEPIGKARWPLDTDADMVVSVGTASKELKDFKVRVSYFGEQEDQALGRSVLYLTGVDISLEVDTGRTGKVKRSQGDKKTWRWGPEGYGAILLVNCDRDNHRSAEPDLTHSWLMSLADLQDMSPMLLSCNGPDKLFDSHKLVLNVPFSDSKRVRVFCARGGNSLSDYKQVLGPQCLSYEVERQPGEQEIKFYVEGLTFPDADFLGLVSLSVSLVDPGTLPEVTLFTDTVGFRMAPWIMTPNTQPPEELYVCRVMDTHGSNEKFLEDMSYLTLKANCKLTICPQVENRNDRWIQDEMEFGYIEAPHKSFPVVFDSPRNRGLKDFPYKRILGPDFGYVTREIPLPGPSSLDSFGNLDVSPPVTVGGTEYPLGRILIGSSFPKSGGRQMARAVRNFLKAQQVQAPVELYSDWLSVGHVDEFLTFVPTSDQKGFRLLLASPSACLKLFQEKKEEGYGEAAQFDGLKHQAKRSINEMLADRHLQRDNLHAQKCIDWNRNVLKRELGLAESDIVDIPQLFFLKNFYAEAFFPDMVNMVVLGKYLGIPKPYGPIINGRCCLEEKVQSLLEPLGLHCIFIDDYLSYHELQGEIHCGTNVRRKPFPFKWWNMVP
Description: as §1

PAD3 = target: T3, PAD3 (Homo sapiens, UniProt Q9ULW8); assay: Inactivation kinetics, PAD3; settings: for kinact/KI: a: single kobs determined; for Fold PAD3 Selectivity: kinact/KI relative to least inhibited isozyme (1.0)
T3 construct: made in house
T3 sequence (Q9ULW8 1-664): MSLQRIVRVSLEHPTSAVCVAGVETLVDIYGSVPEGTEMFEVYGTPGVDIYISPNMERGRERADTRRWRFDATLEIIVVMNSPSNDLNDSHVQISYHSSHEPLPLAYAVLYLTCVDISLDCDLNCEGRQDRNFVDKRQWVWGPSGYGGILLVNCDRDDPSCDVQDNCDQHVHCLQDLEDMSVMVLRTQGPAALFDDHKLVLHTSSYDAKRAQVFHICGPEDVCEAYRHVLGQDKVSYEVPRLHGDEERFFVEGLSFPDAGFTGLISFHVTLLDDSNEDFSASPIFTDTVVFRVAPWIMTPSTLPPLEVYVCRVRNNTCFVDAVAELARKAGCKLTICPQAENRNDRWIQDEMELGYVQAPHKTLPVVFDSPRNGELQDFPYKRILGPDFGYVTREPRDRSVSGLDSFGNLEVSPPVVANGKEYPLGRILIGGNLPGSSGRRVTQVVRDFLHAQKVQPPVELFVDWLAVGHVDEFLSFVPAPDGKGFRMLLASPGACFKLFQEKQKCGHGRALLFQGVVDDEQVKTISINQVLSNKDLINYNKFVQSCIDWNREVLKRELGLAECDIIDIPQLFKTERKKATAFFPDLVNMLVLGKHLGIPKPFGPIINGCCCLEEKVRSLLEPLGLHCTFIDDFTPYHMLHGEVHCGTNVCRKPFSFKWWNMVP
Description: as §1

PAD4 = target: T4, PAD4 (Homo sapiens, UniProt Q9UM07); assay: Inactivation kinetics, PAD4; settings: for kinact/KI: a: single kobs determined, b: from a linear fit; for Fold PAD4 Selectivity: kinact/KI relative to least inhibited isozyme (1.0)
T4 construct: made in house
T4 sequence (Q9UM07 whole entry): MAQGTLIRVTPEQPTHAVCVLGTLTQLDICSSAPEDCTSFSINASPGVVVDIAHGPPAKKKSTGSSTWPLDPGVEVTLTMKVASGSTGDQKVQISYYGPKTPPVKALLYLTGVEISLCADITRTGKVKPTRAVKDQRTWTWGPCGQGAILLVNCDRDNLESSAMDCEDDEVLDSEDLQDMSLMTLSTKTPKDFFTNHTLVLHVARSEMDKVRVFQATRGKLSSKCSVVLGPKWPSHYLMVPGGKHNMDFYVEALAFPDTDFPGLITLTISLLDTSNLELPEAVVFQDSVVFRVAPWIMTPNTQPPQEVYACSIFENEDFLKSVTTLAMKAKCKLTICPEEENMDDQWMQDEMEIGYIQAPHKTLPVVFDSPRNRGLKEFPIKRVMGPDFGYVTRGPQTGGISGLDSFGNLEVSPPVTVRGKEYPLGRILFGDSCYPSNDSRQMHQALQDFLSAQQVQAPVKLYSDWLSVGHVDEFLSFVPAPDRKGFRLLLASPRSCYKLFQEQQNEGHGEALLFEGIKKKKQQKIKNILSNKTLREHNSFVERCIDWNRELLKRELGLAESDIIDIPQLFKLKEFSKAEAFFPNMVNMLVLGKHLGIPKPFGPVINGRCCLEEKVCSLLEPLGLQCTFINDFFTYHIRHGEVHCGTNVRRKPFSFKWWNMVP
Description: as §1

kinact/KI (PAD2)	Fold PAD2 Selectivity (PAD2)	kinact/KI (PAD1)	Fold PAD1 Selectivity (PAD1)	kinact/KI (PAD3)	Fold PAD3 Selectivity (PAD3)	kinact/KI (PAD4)	Fold PAD4 Selectivity (PAD4)	SMILES
28.3 M⁻¹ s⁻¹	1.2 fold	23.3 M⁻¹ s⁻¹	1.0 fold	27 M⁻¹ s⁻¹	1.2 fold	53.3 M⁻¹ s⁻¹	2.3 fold	N=C(CF)NCCC[C@H](NC(=O)c1ccc(-c2ccc(F)cc2)cc1)c1nc2ccccc2[nH]1 [Compound 5o]
91.7 M⁻¹ s⁻¹	1.0 fold	343 M⁻¹ s⁻¹	3.7 fold	176 M⁻¹ s⁻¹	1.9 fold	280 M⁻¹ s⁻¹	3.1 fold	N=C(CCl)NCCC[C@H](NC(=O)c1ccc(-c2ccc(F)cc2)cc1)c1nc2ccccc2[nH]1 [Compound 5p, N1-4′-F-[1,1′-Phenyl]benzol-N5-(2-chloro-1-iminoethyl)-1-(1H-benzo[d]imidazol-2-yl)-L-ornithine]
26.2 M⁻¹ s⁻¹	1.0 fold	31 M⁻¹ s⁻¹	1.2 fold	25.5 M⁻¹ s⁻¹	1.0 fold	60 M⁻¹ s⁻¹	2.4 fold	N=C(CF)NCCC[C@H](NC(=O)c1ccc(-c2ccccc2)cc1)c1nc2cc(F)c(F)cc2[nH]1 [Compound 5q, N1-[1,1′-Phenyl]benzoyl-N5-(2-fluoro-1-iminoethyl)-1-(5,6-difluoro-1H-benzo[d]imidazol-2-yl)-L-ornithine]
93.3 M⁻¹ s⁻¹	1.0 fold	457 M⁻¹ s⁻¹	4.9 fold	239 M⁻¹ s⁻¹	2.6 fold	337 M⁻¹ s⁻¹	3.6 fold	N=C(CCl)NCCC[C@H](NC(=O)c1ccc(-c2ccccc2)cc1)c1nc2cc(F)c(F)cc2[nH]1 [Compound 5r, N1-[1,1′-Phenyl]benzoyl-N5-(2-chloro-1-iminoethyl)-1-(5,6-difluoro-1H-benzo[d]imidazol-2-yl)-L-ornithine]
23.7 M⁻¹ s⁻¹	1.3 fold	29.8 M⁻¹ s⁻¹	1.6 fold	18.3 M⁻¹ s⁻¹	1.0 fold	67.3 M⁻¹ s⁻¹	3.7 fold	N=C(CF)NCCC[C@H](NC(=O)c1ccc(-c2ccc(F)cc2)cc1)c1nc2cc(F)c(F)cc2[nH]1 [Compound 5s, N1-4′-F-[1,1′-Phenyl]benzoyl-N5-(2-fluoro-1-iminoethyl)-1-(5,6-difluoro-1H-benzo[d]imidazol-2-yl)-L-omithine]
95.5 M⁻¹ s⁻¹	1.0 fold	508 M⁻¹ s⁻¹	5.3 fold	120 M⁻¹ s⁻¹	1.3 fold	354 M⁻¹ s⁻¹	3.7 fold	N=C(CCl)NCCC[C@H](NC(=O)c1ccc(-c2ccc(F)cc2)cc1)c1nc2cc(F)c(F)cc2[nH]1 [Compound 5t, N1-4′-F-[1,1′-Phenyl]benzoyl-N5-(2-chloro-1-iminoethyl)-1-(5,6-difluoro-1H-benzo[d]imidazol-2-yl)-L-omithine]
14.6 M⁻¹ s⁻¹	2.3 fold	6.92 M⁻¹ s⁻¹	1.1 fold	6.25 M⁻¹ s⁻¹	1.0 fold	21.7 M⁻¹ s⁻¹	3.5 fold	C#Cc1ccc(-c2ccc(C(=O)N[C@@H](CCCNC(=N)CCl)c3nc4ccccc4[nH]3)cc2)cc1 [Compound 5v, N1-4′-ethynyl-[1,1′-Phenyl]benzol-N5-(2-chloro-1-iminoethyl)-1-(1H-benzo[d]imidazol-2-yl)-L-ornithine]
25 M⁻¹ s⁻¹	1.0 fold	275 M⁻¹ s⁻¹	11 fold	108 M⁻¹ s⁻¹	4.3 fold	405 M⁻¹ s⁻¹	16 fold	N=C(CF)NCCC[C@H](NC(=O)c1ccccc1C(=O)O)c1nc2ccccc2[nH]1 [Compound 6a, N1-(2-Carboxyl)benzol-N5-(2-fluoro-1-iminoethyl)-1-(1H-benzo[d]imidazol-2-yl)-L-ornithine]
